From patent US11198713B2, “Agents modulating beta-catenin functions and methods thereof” (FOG PHARMACEUTICALS, INC., priority 2017, dated 2021)

The compounds below were run against T1, full-length beta-catenin (Axin site) (Homo sapiens, UniProt P35222) (assay: Competition fluorescence polarization assay (Axin site probe)). Details: competition fluorescence polarization, Table 2; read-out: in vitro FP EC50.
T1 construct: 15 nM full-length beta-catenin, 20 nM FITC labeled peptide in buffer
T1 sequence (P35222 1-781): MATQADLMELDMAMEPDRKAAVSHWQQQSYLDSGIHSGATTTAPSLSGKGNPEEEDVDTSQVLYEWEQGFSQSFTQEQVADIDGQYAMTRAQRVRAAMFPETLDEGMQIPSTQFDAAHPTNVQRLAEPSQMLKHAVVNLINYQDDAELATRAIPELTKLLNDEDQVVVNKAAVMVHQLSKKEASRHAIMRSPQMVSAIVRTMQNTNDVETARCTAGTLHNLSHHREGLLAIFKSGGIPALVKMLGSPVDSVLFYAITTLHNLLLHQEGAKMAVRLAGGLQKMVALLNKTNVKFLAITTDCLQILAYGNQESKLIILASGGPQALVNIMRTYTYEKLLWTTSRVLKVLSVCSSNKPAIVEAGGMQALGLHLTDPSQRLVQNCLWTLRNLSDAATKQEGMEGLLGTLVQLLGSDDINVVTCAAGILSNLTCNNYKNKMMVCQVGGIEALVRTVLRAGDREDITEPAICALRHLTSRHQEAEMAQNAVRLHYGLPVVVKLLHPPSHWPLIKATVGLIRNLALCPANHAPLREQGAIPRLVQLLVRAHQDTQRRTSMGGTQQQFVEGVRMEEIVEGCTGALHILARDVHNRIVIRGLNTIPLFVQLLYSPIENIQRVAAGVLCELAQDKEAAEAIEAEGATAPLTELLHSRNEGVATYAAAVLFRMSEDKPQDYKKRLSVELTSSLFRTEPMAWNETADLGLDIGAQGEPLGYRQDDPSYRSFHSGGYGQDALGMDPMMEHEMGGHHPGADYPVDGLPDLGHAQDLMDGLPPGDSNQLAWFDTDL
Type: binding
Summary of the method: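 Competition FP: 15 nM full-length β-catenin pre-incubated 5 min with 20 nM FITC-labelled stapled Axin-site peptide, then titrated peptide added (3-fold series from 5 μM) for 15 min in the dark. Buffer 50 mM Tris pH 8.0, 250 mM NaCl, 2% glycerol, 0.5 mM EDTA; duplicate reads.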

| EC50 [µM] | SMILES |
| --- | --- |
| > 5 | CC[C@H](C)[C@@H]1NC(=O)[C@H](Cc2ccccn2)NC(=O)[C@H](C)NC(=O)[C@H](CC(=O)O)NC(=O)[C@H](CC(C)C)NC(=O)[C@H]([C@@H](C)CC)NC(=O)[C@](C)(NC(=O)[C@H](C)NC(C)=O)CCCCCCC=CCOC(=O)N2CC[C@@](C(=O)N[C@@H](CC(C)C)C(=O)N[C@H](C(=O)N[C@@H](Cc3c[nH]c4ccccc34)C(N)=O)C(C)C)(C2)NC1=O (single isomer, unassigned) [FP0557c Isomer 1, Ac-A-R8-I-L-D-A-2pyr-I-MB-L-V-W-NH2] |
| > 5 | CC[C@H](C)[C@@H]1NC(=O)[C@](C)(NC(=O)[C@H](CCC(N)=O)NC(=O)[C@@H]2CCCN2C(C)=O)CCCC=CCN2CC[C@@](C(=O)N[C@@H](Cc3c[nH]cn3)C(=O)N[C@H](C(=O)N[C@@H](CCCNC(=N)N)C(=O)N[C@@H](CCCNC(=N)N)C(=O)N[C@H](C(=O)N[C@@H](Cc3c[nH]c4ccccc34)C(=O)N[C@@H](CCCNC(=N)N)C(N)=O)C(C)C)C(C)C)(C2)NC(=O)[C@H](CC(=O)O)NC(=O)[C@H](CC(C)C)NC1=O (single isomer, unassigned) [FP0758a, Ac-P-Q-R5-I-L-D-MB-H-V-R-R-V-W-R-NH2] |
| > 5 | CC[C@H](C)[C@@H]1NC(=O)[C@@](C)(NC(=O)[C@H](CCC(N)=O)NC(=O)[C@@H]2CCCN2C(C)=O)CCCC=CCN2CC(C(=O)N[C@@H](Cc3c[nH]cn3)C(=O)N[C@H](C(=O)N[C@@H](CCCNC(=N)N)C(=O)N[C@@H](CCCNC(=N)N)C(=O)N[C@H](C(=O)N[C@@H](Cc3c[nH]c4ccccc34)C(=O)N[C@@H](CCCNC(=N)N)C(N)=O)C(C)C)C(C)C)(C2)NC(=O)[C@H](CC(=O)O)NC(=O)[C@H](CC(C)C)NC1=O (single isomer, unassigned) [FP0734a, Ac-P-Q-S5-I-L-D-MA-H-V-R-R-V-W-R-NH2] |
| 0.5 to 5 | CC[C@H](C)[C@@H]1NC(=O)[C@](C)(NC(=O)[C@H](CCC(N)=O)NC(=O)[C@@H]2CCCN2C(C)=O)CCC=CCOC(=O)N2CC(C(=O)N[C@@H](Cc3c[nH]cn3)C(=O)N[C@H](C(=O)N[C@@H](CCCNC(=N)N)C(=O)N[C@@H](CCCNC(=N)N)C(=O)N[C@H](C(=O)N[C@@H](Cc3c[nH]c4ccccc34)C(=O)N[C@@H](CCCNC(=N)N)C(N)=O)C(C)C)C(C)C)(C2)NC(=O)[C@H](CC(=O)O)NC(=O)[C@H](CC(C)C)NC1=O (single isomer, unassigned) [FP0731c, Ac-P-Q-R4-I-L-D-MA-H-V-R-R-V-W-R-NH2] |
| 0.5 to 5 | CC[C@H](C)[C@@H]1NC(=O)[C@]2(NC(=O)[C@H](CCC(N)=O)NC(=O)[C@@H]3CCCN3C(C)=O)CCN(C2)C(=O)OCC=CCCCC[C@@](C)(C(=O)N[C@@H](Cc2c[nH]cn2)C(=O)N[C@H](C(=O)N[C@@H](CCCNC(=N)N)C(=O)N[C@@H](CCCNC(=N)N)C(=O)N[C@H](C(=O)N[C@@H](Cc2c[nH]c3ccccc23)C(=O)N[C@@H](CCCNC(=N)N)C(N)=O)C(C)C)C(C)C)NC(=O)[C@H](CC(=O)O)NC(=O)[C@H](CC(C)C)NC1=O (single isomer, unassigned) [FP0752c, Ac-P-Q-MB-I-L-D-S6-H-V-R-R-V-W-R-NH2] |
| < 0.1 | CC[C@H](C)[C@@H]1NC(=O)[C@H](Cc2c[nH]cn2)NC(=O)[C@H](C)NC(=O)[C@H](CC(=O)O)NC(=O)[C@H](CC(C)C)NC(=O)[C@H]([C@@H](C)CC)NC(=O)[C@](C)(NC(=O)[C@H](C)NC(C)=O)CCCCCCC=CCCC[C@@](C)(C(=O)N[C@@H](CCCNC(=N)N)C(=O)N[C@H](C(=O)N[C@@H](Cc2c[nH]c3ccccc23)C(N)=O)C(C)C)NC1=O (single isomer, unassigned) [FP0217s Isomer 2, Ac-A-R8-I-L-D-A-H-I-S5-R-V-W-NH2] |
| 0.5 to 5 | CC[C@H](C)[C@@H]1NC(=O)[C@](C)(NC(=O)[C@H](CCC(N)=O)NC(=O)[C@@H]2CCCN2C(C)=O)CCCC=CCOC(=O)N2CC[C@@](C(=O)N[C@@H](Cc3c[nH]cn3)C(=O)N[C@H](C(=O)N[C@@H](CCCNC(=N)N)C(=O)N[C@@H](CCCNC(=N)N)C(=O)N[C@H](C(=O)N[C@@H](Cc3c[nH]c4ccccc34)C(=O)N[C@@H](CCCNC(=N)N)C(N)=O)C(C)C)C(C)C)(C2)NC(=O)[C@H](CC(=O)O)NC(=O)[C@H](CC(C)C)NC1=O (single isomer, unassigned) [FP0758c, Ac-P-Q-R5-I-L-D-MB-H-V-R-R-V-W-R-NH2] |
| 0.5 to 5 | CC[C@H](C)[C@@H]1NC(=O)[C@@](C)(NC(=O)[C@H](CCC(N)=O)NC(=O)[C@@H]2CCCN2C(C)=O)CCCCCC=CCOC(=O)N2CC(C(=O)N[C@@H](Cc3c[nH]cn3)C(=O)N[C@H](C(=O)N[C@@H](CCCNC(=N)N)C(=O)N[C@@H](CCCNC(=N)N)C(=O)N[C@H](C(=O)N[C@@H](Cc3c[nH]c4ccccc34)C(=O)N[C@@H](CCCNC(=N)N)C(N)=O)C(C)C)C(C)C)(C2)NC(=O)[C@H](CC(=O)O)NC(=O)[C@H](CC(C)C)NC1=O (single isomer, unassigned) [FP0738c, Ac-P-Q-S7-I-L-D-MA-H-V-R-R-V-W-R-NH2] |
| 0.1 to 0.5 | CC[C@H](C)[C@@H]1NC(=O)[C@](C)(NC(=O)[C@H](CCC(N)=O)NC(=O)[C@@H]2CCCN2C(C)=O)CCCCC=CCOC(=O)N2CC[C@](C(=O)N[C@@H](Cc3c[nH]cn3)C(=O)N[C@H](C(=O)N[C@@H](CCCNC(=N)N)C(=O)N[C@@H](CCCNC(=N)N)C(=O)N[C@H](C(=O)N[C@@H](Cc3c[nH]c4ccccc34)C(=O)N[C@@H](CCCNC(=N)N)C(N)=O)C(C)C)C(C)C)(C2)NC(=O)[C@H](CC(=O)O)NC(=O)[C@H](CC(C)C)NC1=O (single isomer, unassigned) [FP0767c, Ac-P-Q-R6-I-L-D-MC-H-V-R-R-V-W-R-NH2] |
| 0.5 to 5 | CC[C@H](C)[C@@H]1NC(=O)[C@@](C)(NC(=O)[C@H](CCC(N)=O)NC(=O)[C@@H]2CCCN2C(C)=O)CCCN(C)C(=O)OCC=CCCC[C@@](C)(C(=O)N[C@@H](Cc2c[nH]cn2)C(=O)N[C@H](C(=O)N[C@@H](CCCNC(=N)N)C(=O)N[C@@H](CCCNC(=N)N)C(=O)N[C@H](C(=O)N[C@@H](Cc2c[nH]c3ccccc23)C(=O)N[C@@H](CCCNC(=N)N)C(N)=O)C(C)C)C(C)C)NC(=O)[C@H](CC(=O)O)NC(=O)[C@H](CC(C)C)NC1=O (single isomer, unassigned) [FP0780c, Ac-P-Q-MH-I-L-D-S5-H-V-R-R-V-W-R-NH2] |
| < 0.1 | CC[C@H](C)[C@@H]1NC(=O)[C@H](Cc2c[nH]cn2)NC(=O)C(C)(C)NC(=O)[C@H](CC(=O)O)NC(=O)[C@H](CC(C)C)NC(=O)[C@H]([C@@H](C)CC)NC(=O)[C@](C)(NC(=O)[C@H](C)NC(C)=O)CCCCCCC=CCOC(=O)N2CC[C@@](C(=O)N[C@@H](CCCNC(=N)N)C(=O)N[C@H](C(=O)N[C@@H](Cc3c[nH]c4ccccc34)C(N)=O)C(C)C)(C2)NC1=O [FP0645c, Ac-A-R8-I-L-D-Aib-H-I-MB-R-V-W-NH2] |

Same assay, conditions: competition with FITC labeled Axin-site probe, 15 nM full-length beta-catenin; read-out: FP EC50

| EC50 [µM] | SMILES |
| --- | --- |
| 1.4 | CC[C@H](C)[C@@H]1NC(=O)[C@](C)(NC(=O)[C@H](CCC(N)=O)NC(=O)[C@@H]2CCCN2C(C)=O)CCCN(C)CC=CCCC[C@](C)(C(=O)N[C@@H](Cc2c[nH]cn2)C(=O)N[C@H](C(=O)N[C@@H](CCCNC(=N)N)C(=O)N[C@@H](CCCNC(=N)N)C(=O)N[C@H](C(=O)N[C@@H](Cc2c[nH]c3ccccc23)C(=O)N[C@@H](CCCNC(=N)N)C(N)=O)C(C)C)C(C)C)NC(=O)[C@H](CC(=O)O)NC(=O)[C@H](CC(C)C)NC1=O (single isomer, unassigned) [FP-0783, Ac-P-Q-ReN-I-L-D-R5-H-V-R-R-V-W-R-NH2] |
| 0.11 | CC[C@H](C)[C@@H]1NC(=O)[C@@]2(NC(=O)[C@H](CCC(N)=O)NC(=O)[C@@H]3CCCN3C(C)=O)CCN(C2)C(=O)OCC=CCCCC[C@](C)(C(=O)N[C@@H](Cc2c[nH]cn2)C(=O)N[C@H](C(=O)N[C@@H](CCCNC(=N)N)C(=O)N[C@@H](CCCNC(=N)N)C(=O)N[C@H](C(=O)N[C@@H](Cc2c[nH]c3ccccc23)C(=O)N[C@@H](CCCNC(=N)N)C(N)=O)C(C)C)C(C)C)NC(=O)[C@H](CC(=O)O)NC(=O)[C@H](CC(C)C)NC1=O (single isomer, unassigned) [FP-0745c, Ac-P-Q-PR-I-L-D-R6-H-V-R-R-V-W-R-NN2] |
| 1.4 | CC[C@H](C)[C@@H]1NC(=O)C2(NC(=O)[C@H](CCC(N)=O)NC(=O)[C@@H]3CCCN3C(C)=O)CN(C2)C(=O)OCC=CCCC[C@](C)(C(=O)N[C@@H](Cc2c[nH]cn2)C(=O)N[C@H](C(=O)N[C@@H](CCCNC(=N)N)C(=O)N[C@@H](CCCNC(=N)N)C(=O)N[C@H](C(=O)N[C@@H](Cc2c[nH]c3ccccc23)C(=O)N[C@@H](CCCNC(=N)N)C(N)=O)C(C)C)C(C)C)NC(=O)[C@H](CC(=O)O)NC(=O)[C@H](CC(C)C)NC1=O (single isomer, unassigned) [FP-0723c, Ac-P-Q-Az-I-L-D-R5-H-V-R-R-V-W-R-NH2] |
